US10471118B2, “Retinylamine derivitives for treatment of ocular disorders” (CASE WESTERN RESERVE UNIVERSITY, priority 2014, dated 2019)
Entries after “also recorded” stand apart in the source; their conditions may differ.

Legend:
[1] = test system: Abca4^−/−Rdh8^−/− mice; assay: Light-induced retinal degeneration in Abca4-/-Rdh8-/- mice (OCT, ERG, histology), Example 1; format: in vivo, mouse; details: 0.875 μmol per mouse oral gavage 16 h before 10,000 lux 1 h, OCT after 3 days in dark
Experimental: Abca4^−/−Rdh8^−/− double knockout mice were housed in the animal facility at the School of Medicine, Case Western Reserve University, where they were maintained under either complete darkness or a 12-h light (−10 1×) and 12-h dark cycle. All retinylamine tested were dissolved or suspended in 100 μl of vegetable oil with less than 10% (v/v) DMSO and were administered by oral gavage with a 22-gauge feeding needle. Experimental manipulations in the dark were done under dim red light transmitted through a Kodak No. 1 safelight filter (transmittance >560 nm). All animal procedures and experiments were approved by the Case Western Reserve University Animal Care Committees and conformed to recommendations of the American Veterinary Medical Association Panel on Euthanasia and the Association of Research for Vision and Ophthalmology.
After dark adaptation for 48 h, one or two Abca4^−/−Rdh8^−/− mice with pupils dilated by 1% tropicamide were exposed to fluorescent light (10,000 1×; 150-W spiral lamp, Commercial Electric) for 60 min in a white plastic bucket (Papersmith) with food and water and then kept in the dark. Histological and biochemical experiments were performed 3 days after exposure.
Ultra-high resolution spectral-domain OCT (SD-OCT; Bioptigen) and Heidelberg Retinal Angiograph II SLO (Heidelberg Engineering) were used for in vivo imaging of mouse retinas. Mice were anesthetized by intraperitoneal injection of a cocktail (20 μl g-1 body weight) containing ketamine (6 mg ml-1) and xylazine (0.44 mg ml-1) in 10 mM sodium phosphate, pH 7.2, and 100 mM NaCl. Pupils were dilated with 1% tropicamide. Four pictures acquired in the B-scan mode were used to construct each final averaged SD-OCT image.
All ERG procedures were performed by published methods. For single-flash recording, the duration of white-light flash stimuli (from 20 μs to 1 ms) was adjusted to provide a range of illumination intensities (from −3.7 to 1.6 log cd s m-2). Three to five recordings were made at sufficient intervals between flash stimuli (from 3 s to 1 min) to allow recovery from any photobleaching effects.
Mouse eyes were fixed for 24 h by rocking in a fixation solution (2 ml/eye) containing 4% paraformaldehyde and 1% glutaraldehyde in PBS. The tissue was processed through a series of ethanols, xylenes, and paraffins in a Tissue-Tek VIP automatic processor (Sakura, Torrance, Calif., USA), and 5-μm sections were cut using a Microm HM355 paraffin microtome (Thermo Fisher Scientific, Waltham, Mass., USA) and stained with hematoxylin and eosin (H&E) stain. Images of stained sections were captured by a Leica CTR6000 microscope attached to a CCD camera (Micropublisher 5.0 RTV, Qimaging Surray BC, Canada).
The effectiveness of the retinylamine derivatives on preventing light-induced retinal degeneration was tested in four-week old Abca4^−/−Rdh8^−/− mice according to the experimental scheme depicted in FIG. 1. After the mice were dark-adapted for 48 h, the drugs were gavaged at a dose 0.875 μmol/per mouse, which was selected based on the half protection dose for retinylamine after a dosing experiment, FIG. 2. Retinylamine was tested as a control at the same dose. […] Retinal integrity was assessed using optical coherence tomography (OCT). […] The mice without any treatment had photoreceptor cells completely destroyed after light illumination, and were used as a negative control. The retinal integrity was determined based on the thickness of outer nuclear layer (ONL) of the retinas measured from the OCT images. Reduced ONL thickness signifies the decreasing number of photoreceptors and retinal degeneration.

[2] = Biodistribution of N-retinylamides and retinylamine derivatives in liver and eye after oral gavage; format: in vivo, mouse; details: for original drug detected in the eye: 2 h and 16 h; for metabolism in the eye: conclusion from biodistribution at 2 h and 16 h
Experimental: Female C57BL mice (4-week-old) were randomly divided into seven groups, six treated groups and one control group. Free Ret-NH2 (3.5 μmol per mouse, dissolved in DMSO and dispersed in vegetable oil) or retinylamine derivatives (Ret-Gly, Ret-L-Val-Gly, Ret-L-Phe, Ret-L-Leu, Ret-L-Val, 3.5 μmol per mouse, dissolved in DMSO and dispersed in vegetable oil) was administered by gastric gavage, control group was only gavaged vegetable oil. Then at each predetermined time point (2 and 16 h after drug administration), 3 mice were sacrificed. The liver and eye balls were collected to determine tissue N-retinylamide content for pharmacokinetic analysis. A portion of the liver tissue (0.3-0.5 g) was weighed, homogenized in 2 mL 1:1 ethanol:PBS solution and the eye balls were similarly processed (eye balls were combined for 3 mice). N-Retinylamides were extracted in 4 mL hexane, concentrated, and reconstituted to a 300 μL volume for liver (200 μL for eye). Normal-phase HPLC (Agilent-Zorbax SIL; 5 μm; 4.5×250 mm; flow rate of 1.4 mL/min; 80:20 hexane:ethyl acetate (v:v); detection at 325 nm) was utilized to determine N-retinylamide concentration in these tissues.
Female C57BL mice (4-week-old) were randomly divided into seven groups, six treated groups and one control group. Free Ret-NH2 (3.5 μmol per mouse, dissolved in DMSO and dispersed in vegetable oil) or retinylamine derivative (Ret-Gly, Ret-L-Val-Gly, Ret-L-Phe, Ret-L-Leu, Ret-L-Val, 3.5 μmol per mouse, dissolved in DMSO and dispersed in vegetable oil) was administered by gastric gavage, control group was only gavaged vegetable oil. Then at each predetermined time point (2 and 16 h after drug administration), 3 mice were sacrificed. The liver and eye balls were collected to determine tissue drug content for pharmacokinetic analysis. A portion of the liver tissue (0.3-0.5 g) was weighed, homogenized in 2 mL 1:1 ethanol:PBS solution and the eye balls were similarly processed. Retinylamine or its derivative was extracted in 4 mL ethyl acetate, concentrated, and reconstituted to a 300 μL volume for liver (200 μL for eye). Reverse-phase HPLC (analytical C18 reverse column; 5 μm; 250 mm×4.6 mm; flow rate of 1.0 mL/min; 60:40 acetonitrile:H2O (v:v) with 0.05% trifluoroacetic acid; detection at 325 nm) was utilized to determine retinylamine or its derivative in these tissues. […]
No N-retinylamides were detected in the eye at 2 h for all treated mice. The concentration of N-retinylamides in the liver of all treated mice increased at 16 h post-treatment. […] The concentrations of the original drugs were also determined in the liver and eye at 2 h and 16 h (FIGS. 7C, D). All tested drugs, including Ret-NH2, were detected in liver and their concentrations decreased from 2 h to 16 h.

[3] = 3.5 μmol per mouse oral, C57BL mice, 16 h

| SMILES | protection against light-induced retinal degeneration (ONL thickness from OCT) [1] | original drug detected in the eye ([2]; 3.5 μmol per mouse oral) | other results |
| --- | --- | --- | --- |
| CC1=C(/C=C/C(C)=C/C=C/C(C)=C/CNC(=O)CCN)C(C)(C)CCC1 [3h, 3-amino-N-((2E,4E,6E,8E)-3,7-dimethyl-9-(2,6,6-trimethylcyclohex-1-en-1-yl)nona-2,4,6,8-tetraen-1-yl)propanamide] | little protecting efficacy |  |  |
| CC1=C(/C=C/C(C)=C/C=C/C(C)=C/CNC(=O)[C@@H](N)C(C)C)C(C)(C)CCC1 [RV, (S)-2-amino-N-((2E,4E,6E,8E)-3,7-dimethyl-9-(2,6,6-trimethylcyclohex-1-en-1-yl)nona-2,4,6,8-tetraen-1-yl)-3-methylbutanamide] | relatively high protecting effect | detected in eyes at both 2 h and 16 h at a relatively high concentration | N-retinylamides in the eye [2, 3]: no detectable N-retinylamides in the eye; liver concentration of N-retinylamides [2, 3]: lower liver concentration of N-retinylamides than RF and RL; metabolism in the eye [2]: stable against metabolism and had prolonged presence in the eye as intact drug molecules |
| CC[C@H](C)[C@H](N)C(=O)NC/C=C(C)/C=C/C=C(C)/C=C/C1=C(C)CCCC1(C)C [3c, (2S,3S)-2-amino-N-((2E,4E,6E,8E)-3,7-dimethyl-9-(2,6,6-trimethylcyclohex-1-en-1-yl)nona-2,4,6,8-tetraen-1-yl)-3-methylpentanamide] | little protecting efficacy |  |  |
| CC1=C(/C=C/C(C)=C/C=C/C(C)=C/CNC(=O)[C@@H](C)N)C(C)(C)CCC1 [3f, (R)-2-amino-N-((2E,4E,6E,8E)-3,7-dimethyl-9-(2,6,6-trimethylcyclohex-1-en-1-yl)nona-2,4,6,8-tetraen-1-yl)propanamide] | little protecting efficacy |  |  |
| CC1=C(/C=C/C(C)=C/C=C/C(C)=C/CNC(=O)[C@H](C)N)C(C)(C)CCC1 [3a, (S)-2-amino-N-((2E,4E,6E,8E)-3,7-dimethyl-9-(2,6,6-trimethylcyclohex-1-en-1-yl)nona-2,4,6,8-tetraen-1-yl)propanamide] | little protecting efficacy |  |  |
| CC1=C(/C=C/C(C)=C/C=C/C(C)=C/CNC(=O)[C@H](N)C(C)C)C(C)(C)CCC1 [3g, (R)-2-amino-N-((2E,4E,6E,8E)-3,7-dimethyl-9-(2,6,6-trimethylcyclohex-1-en-1-yl)nona-2,4,6,8-tetraen-1-yl)-3-methylbutanamide] | little protecting efficacy |  |  |
| CC1=C(/C=C/C(C)=C/C=C/C(C)=C/CNC(=O)[C@@H](N)CC(C)C)C(C)(C)CCC1 [RL, (S)-2-amino-N-((2E,4E,6E,8E)-3,7-dimethyl-9-(2,6,6-trimethylcyclohex-1-en-1-yl)nona-2,4,6,8-tetraen-1-yl)-4-methylpentanamide] | low protecting effect | only detected at 2 h | protection against light-induced retinal degeneration (ONL thickness from OCT) ([1]; listed as L-leucyl): little protecting efficacy; metabolism in the eye [2]: rapidly metabolized into inactive N-retinylamides in the eye |
| CC1=C(/C=C/C(C)=C/C=C/C(C)=C/CNC(=O)[C@@H]2CCCN2)C(C)(C)CCC1 [3i, (S)—N-((2E,4E,6E,8E)-3,7-dimethyl-9-(2,6,6-trimethylcyclohex-1-en-1-yl)nona-2,4,6,8-tetraen-1-yl)pyrrolidine-2-carboxamide] | little protecting efficacy |  |  |
| CC1=C(/C=C/C(C)=C/C=C/C(C)=C/CNC(=O)CN)C(C)(C)CCC1 [RG, 2-amino-N-((2E,4E,6E,8E)-3,7-dimethyl-9-(2,6,6-trimethylcyclohex-1-en-1-yl)nona-2,4,6,8-tetraen-1-yl)acetamide] | significant improvement on preventing light-induced retinopathy over retinyl amine; also recorded: relatively high protecting effect | detected in eyes at both 2 h and 16 h at a relatively high concentration | protection against light-induced retinal degeneration (ONL thickness from OCT) ([1]; listed as glycyl): significantly better protection than Ret-NH2 and other derivatives; liver concentration of N-retinylamides [2, 3]: lower liver concentration of N-retinylamides than RF and RL |
| CC1=C(/C=C/C(C)=C/C=C/C(C)=C/CNC(=O)CNC(=O)[C@@H](N)C(C)C)C(C)(C)CCC1 [RGV, (S)-2-amino-N-(2-(((2E,4E,6E,8E)-3,7-dimethyl-9-(2,6,6-trimethylcyclohex-1-en-1-yl)nona-2,4,6,8-tetraen-1-yl)amino)-2-oxoethyl)-3-methylbutanamide] | significant improvement on preventing light-induced retinopathy over retinyl amine |  |  |
